We go through one molecule from ChEMBL document CHEMBL5137000, “Discovery of a novel and potent inhibitor with differential species-specific effects against NLRP3 and AIM2 inflammasome-dependent pyroptosis” (Eur J Med Chem, 2022).

Active and inactive are the calls of the source. The calls are words filed in the database; no cut-off is given here.

In this assay the target is NACHT, LRR and PYD domains-containing protein 3 (Homo sapiens) (UniProt Q96P20). The assay is described as follows: Inhibition of NLRP3 inflammasome activation in LPS-primed human THP-1 cells assessed as reduction in nigericin-induced IL-1beta release in supernatant pretreated for 30 mins followed by nigericin stimulation and measured after 30 min by ELISA. The format is cell-based. To be noted: time 60.0 min. A general note: An ELISA detects its analyte on a solid surface through an enzyme-linked reagent.
Chain of NACHT, LRR and PYD domains-containing protein 3 (Homo sapiens) (Q96P20 whole entry, the tested form may be a part): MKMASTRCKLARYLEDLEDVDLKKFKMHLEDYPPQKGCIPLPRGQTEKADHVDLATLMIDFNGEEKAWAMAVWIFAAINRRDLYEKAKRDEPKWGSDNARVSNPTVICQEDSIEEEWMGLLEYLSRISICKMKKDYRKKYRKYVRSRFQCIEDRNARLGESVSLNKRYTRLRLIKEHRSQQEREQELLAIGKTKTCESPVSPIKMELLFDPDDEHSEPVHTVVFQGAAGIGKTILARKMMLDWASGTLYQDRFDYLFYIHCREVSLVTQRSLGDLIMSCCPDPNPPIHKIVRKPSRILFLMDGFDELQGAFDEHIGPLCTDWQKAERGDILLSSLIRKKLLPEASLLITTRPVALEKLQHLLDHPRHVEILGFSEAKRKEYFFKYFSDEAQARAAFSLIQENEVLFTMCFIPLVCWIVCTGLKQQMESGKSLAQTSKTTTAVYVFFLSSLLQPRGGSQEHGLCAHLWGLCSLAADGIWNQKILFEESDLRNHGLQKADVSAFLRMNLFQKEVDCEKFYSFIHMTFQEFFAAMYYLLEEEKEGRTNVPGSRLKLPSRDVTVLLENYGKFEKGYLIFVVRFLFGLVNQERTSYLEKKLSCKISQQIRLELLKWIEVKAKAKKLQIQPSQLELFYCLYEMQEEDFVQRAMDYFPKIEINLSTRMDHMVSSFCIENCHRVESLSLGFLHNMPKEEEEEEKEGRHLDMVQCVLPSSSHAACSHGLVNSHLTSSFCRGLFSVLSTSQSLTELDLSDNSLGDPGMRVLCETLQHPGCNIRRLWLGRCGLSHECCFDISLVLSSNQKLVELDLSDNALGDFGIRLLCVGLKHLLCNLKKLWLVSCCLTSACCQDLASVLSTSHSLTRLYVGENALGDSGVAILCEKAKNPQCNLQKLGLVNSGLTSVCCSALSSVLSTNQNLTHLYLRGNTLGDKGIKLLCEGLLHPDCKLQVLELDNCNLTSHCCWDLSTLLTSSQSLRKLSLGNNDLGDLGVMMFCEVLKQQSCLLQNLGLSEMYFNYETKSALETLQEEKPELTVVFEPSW

In the case of `COc1ccc(CC(=O)Nc2cccc(B(O)O)c2)cc1`, the inhibition entry was “Active”.
